The target of test [1] is GST-CBP(1081-1197) bromodomain (Homo sapiens (Human), UniProt Q92793). Kind of test: CBP AlphaScreen Assay. The following applies: binding to biotin-H4(1-21) Ac-K5/8/12/16 peptide. The procedure:
(§1) Specific binding of the CBP or BRD4 bromodomain to the acetylated peptide derived from the H4 histone substrate (tetra acetylated H4(1-21) Ac-K5/8/12/16) was measured in absence or presence of inhibitors.
(§2) The standard dose response curves were fitted by Genedata Screener software using the variable-slope model: Signal=Signalnegative control+(SignalDMSO control−Signalnegative control)/(1+(IC50/Dose)^Hill slope).
(§3) Only Signal and Dose in the equation were treated as known values.
In general terms: Bead proximity is the source of the signal in Alpha formats.

The target in a further test is BRD4(49-170) bromodomain (Homo sapiens (Human), UniProt O60885). Kind of test: BRD4 AlphaScreen Assay. The following applies: binding to biotin-H4(1-21) Ac-K5/8/12/16 peptide. The procedure: as §1, §2, §3

Each structure is given as a SMILES string. Where only a bound is given, the exact number is not on record here.

Chain of GST-CBP(1081-1197) bromodomain (Q92793 1081-1197): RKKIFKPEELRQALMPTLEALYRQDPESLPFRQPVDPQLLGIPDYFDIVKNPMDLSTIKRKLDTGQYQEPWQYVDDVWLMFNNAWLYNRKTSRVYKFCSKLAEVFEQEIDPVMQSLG

As for `CC(=O)N1CCn2c(C3CC3)nc(-c3cc4c(-c5cnn(C)c5)nn(C)c4cc3F)c2C1` [Example 28, 1-(3-Cyclopropyl-1-(6-fluoro-1-methyl-3-(1-methyl-1H-pyrazol-4-yl)-1H-indazol-5-yl)-5,6-dihydroimidazo[1,5-a]pyrazin-7(8H)-yl)ethan-1-one], the IC50 in test [1] stood at 33 nM; at BRD4(49-170) bromodomain it was 18600 nM.
In the same order, the values of `CC(=O)N1CCn2c(C3CC3)nc(-c3ccnc4c3cc(-c3cnn(C)c3)n4C)c2C1` [Example 29, 1-(3-Cyclopropyl-1-(1-methyl-2-(1-methyl-1H-pyrazol-4-yl)-1H-pyrrolo[2,3-b]pyridin-4-yl)-5,6-dihydroimidazo[1,5-a]pyrazin-7(8H)-yl)ethan-1-one] are 324 nM and above 25000 nM.
Taken in the same sequence, the figures for `CC(=O)N1CCn2c(C3CC3)nc(-c3ccc4c(c3)c(-c3c(C)noc3C)nn4C)c2C1` [Example 30, 1-(3-Cyclopropyl-1-(3-(3,5-dimethylisoxazol-4-yl)-1-methyl-1H-indazol-5-yl)-5,6-dihydroimidazo[1,5-a]pyrazin-7(8H)-yl)ethan-1-one] were 1180 nM and above 25000 nM.
Taken in the same sequence, the figures for `CNC(=O)c1nc(-c2ccc3c(c2)c(-c2cnn(C)c2)nn3C)c2n1CCN(C(C)=O)C2` [Example 31, 7-Acetyl-N-methyl-1-(1-methyl-3-(1-methyl-1H-pyrazol-4-yl)-1H-indazol-5-yl)-5,6,7,8-tetrahydroimidazo[1,5-a]pyrazine-3-carboxamide] were 611 nM and 7470 nM.
In the case of `CC(=O)N1CCn2c(Cl)nc(-c3ccc4c(c3)c(-c3cnn(C)c3)nn4C)c2C1` [Example 32, 1-(3-Chloro-1-(1-methyl-3-(1-methyl-1H-pyrazol-4-yl)-1H-indazol-5-yl)-5,6-dihydroimidazo[1,5-a]pyrazin-7(8H)-yl)ethan-1-one], the half-inhibitory concentration (IC50) in test [1] is 439 nM; on BRD4(49-170) bromodomain it was above 10000 nM.
In the same order, the values of `CNC(=O)N1CCn2c(C3CC3)nc(N3CCCc4nc(-c5cnn(C)c5)c(C(F)(F)F)cc43)c2C1` [Example 33, 3-Cyclopropyl-N-methyl-1-(6-(1-methyl-1H-pyrazol-4-yl)-7-(trifluoromethyl)-3,4-dihydro-1,5-naphthyridin-1(2H)-yl)-5,6-dihydroimidazo[1,5-a]pyrazine-7(8H)-carboxamide] are 40 nM and above 10000 nM.
In the same order, the values of `CNC(=O)N1CCn2c(C3CC3)nc(-c3cccc4nc(-c5cnn(C)c5)c(C(F)F)cc34)c2C1` [Example 34, 3-Cyclopropyl-1-(3-(difluoromethyl)-2-(1-methyl-1H-pyrazol-4-yl)quinolin-5-yl)-N-methyl-5,6-dihydroimidazo[1,5-a]pyrazine-7(8H)-carboxamide] are 37 nM and 17300 nM.
For the compound `CC(=O)N1CCn2c(C3CC3)nc(N3CCCc4cc(-c5ccc(C(N)=O)cc5)ccc43)c2C1` [Example 35, 4-(1-(7-Acetyl-3-cyclopropyl-5,6,7,8-tetrahydroimidazo[1,5-a]pyrazin-1-yl)-1,2,3,4-tetrahydroquinolin-6-yl)benzamide], the IC50 is 79 nM in test [1] and above 25000 nM at BRD4(49-170) bromodomain.
In the same order, the values of `CNC(=O)N1CCn2c(C3CC3)nc(-c3ccnc4nc(-c5cnn(C)c5)c(C(F)F)cc34)c2C1` [Example 36, 3-Cyclopropyl-1-(6-(difluoromethyl)-7-(1-methyl-1H-pyrazol-4-yl)-1,8-naphthyridin-4-yl)-N-methyl-5,6-dihydroimidazo[1,5-a]pyrazine-7(8H)-carboxamide] are 38 nM and 9710 nM.
Taken in the same sequence, the figures for `CNC(=O)N1CCn2c(C3CC3)nc(-c3cccc4nc(-c5cnn(C)c5)ncc34)c2C1` [Example 37, 3-Cyclopropyl-N-methyl-1-(2-(1-methyl-1H-pyrazol-4-yl)quinazolin-5-yl)-5,6-dihydroimidazo[1,5-a]pyrazine-7(8H)-carboxamide] were 16 nM and 14300 nM.

One may read the IC50 as the concentration needed to halve the response being measured.

For the origin of these results see patent publication US11058688B2, “Imidazopiperazine inhibitors of transcription activating proteins” (Board of Regents, The University of Texas System, priority 2018, dated 2021).
